Results published in patent US20210345614A1, “APPLICATION OF 7-CARBOXYBENZO[1,2,3]THIADIAZOLE AMIDES AS PLANT STIMULANTS” (ADAM MICKIEWICZ UNIVERSITY FOUNDATION, priority 2015, published 2021).

Experiments:
[1] = tested on: Powdery mildew; test: Protection of tomato against fungal infection of Powdery mildew; format: in vivo, Tomato Lycopersicon esculentum Mill
Description: Tomato plants in the phase of first pair of developed true leaves were watered twice with BTHWA at a concentration of 20 mg/L, at a weekly interval. Control tomato plants were treater with water only. One week after the second treatment with BTHWA, Powdery mildew fungi suspension was introduced to the leaf using an insulin syringe (without a needle). The suspension was prepared from a culture in solid medium solid. Protection against biotic stress was evaluated based on comparing the area of the leaves infected by the fungi. […] The procedure as described in Example 18 was followed, however, the plants were sprayed.

[2] = tested on: Nicotiana tabacum var. xanthi; test: Phytotoxicity of BTHWA spray on tobacco under greenhouse conditions; conditions: 5 to 1000 mg/L tested
Description: Experiments were carried out on a model tobacco plant (Nicotiana tabacum var. xanthi) under greenhouse conditions, where the plant was in the three-developed leaves phase. The plants were sprayed (with full coverage of the leaves surface) with a solution of a working fluid having a concentration of active substance (BTHWA) starting from 5 and ending at 1000 mg/L The phytotoxicity of the BTHWA was evaluated.

[3] = tested on: Tobacco plants; test: Protection against abiotic stress in tobacco caused by lack of water; format: in vivo; conditions: watered twice 20 mg/L; 10 days after cessation of watering
Description: Tobacco plants at the stage of 3 developed leaves were watered twice with BTHWA at concentration of 20 mg/L, at a weekly intervals. Control […] plants were watered with water only. A week after the second treatment, plants were exposed to a stress factor in the form of lack of access to water.

[4] = tested on: Radish seeds; test: Germination of radish seeds; format: in vivo; conditions: seeds in 10 mg/L solution, after 2 days
Description: Radish seeds were placed in water-containing solution of BTHWA at a concentration of 10 mg/L or water only (control samples).

[5] = tested on: Pseudomonas syringe pv. tomato; test: Protection of tomato against bacterial infection of Pseudomonas syringe pv. tomato; format: in vivo, Tomato Lycopersicon esculentum Mill; conditions: sprayed twice, 20 mg/L
Description: Tomato plants in the phase of first pair of developed true leaves were watered twice with BTHWA at a concentration of 20 mg/L, at a weekly interval. Control tomato plants were treated with water only. One week after the second treatment Pseudomonas syringe pv. tomato bacterial suspension at a concentration of 10^5 CFU/cm^3 was introduced to the leaf using an insulin syringe (without a needle). Bacterial suspension was prepared from two-day Pseudomonas syringe pv. tomato culture on solid medium. Protection against biotic stress was evaluated based on the amount of bacterial growth in the leaves at the point of introduction followed by the formation of necrotic spots, and this compared with the control. […] The procedure as described in Example 16 was followed, however, the plants were sprayed. BTHWA at the concentration of 20 mg/L was applied twice by spraying.

[6] = tested on: tobacco mosaic virus (TMV); test: TMV-tobacco cv. xanthi model, protection against biotic stress (necrotic spots); format: in vivo, Nicotiana tabacum cv. xanthi; conditions: for Resistance induction [%] (Reduction of necrotic spots related to control): evaluated after another 4 days
Description: Tobacco plants (Nicotiana tabacum) cv. xanthi at the stage of three developed leaves was watered (i.e. applied to the roots) twice with BTHWA solution of 10 mg/L, in one-week intervals. Control tobacco plants were irrigated with water only. […] To assess the biological effectiveness in protecting plants against biotic stress, the TMV-tobacco cv. xanthi model was used. This pathogen-plant model includes determining the hypersensitivity interaction phenomena with formation of necrotic spots which are quantifiable.
Tobacco plants (Nicotiana tabacum) cv. xanthi at the stage of three developed leaves were sprayed once with BION™ or BTHWA solutions at a concentration of 20 mg/L. A week later, the plants were mechanically infected with TMV virus by repeatedly rubbing the leaves with carborundum steeped in a suspension of the purified virus at the concentration of approx. 2 μg/ml. The level of protection against biotic stress was assessed by comparing the number of necrotic spots caused by TMV on the leaves of plants treated by BTHWA or BION™ and compared to the control (plant sprayed with water only).
Reduction of the amount of necrotic spots indicates protection against influence of the biotic factor on the plant.
The procedure as described in Example 4 was followed, however, the treated and control plants were divided into three batches and their leaves were inoculated with a virus, respectively after 1, 2, and 3 weeks past the last treatment with BTHWA or water only.
After six days, plants treated with a solution of the working fluid at a BTHWA concentration <100 mg/L were inoculated with tobacco mosaic virus (TMV) in order to determine the degree of induction of resistance caused by the formulation. After another 4 days of infection by TMV, the level of infection was evaluated by determining the number and size of necrotic spot caused by viral disease oi the plant leaves relative to the control.
Research on the durability of the induced resistance effect on the model of tobacco plants against TMV virus was performed. […] The group of plants were then infected with the virus after 1, 3, 6, 10, 15, 20, 25 and 30 days (Table 3).

[7] = tested on: Pseudomonas syringe pv. tomato; test: Protection of tobacco against bacterial infection of Pseudomonas syringe pv. tomato; format: in vivo, Nicotiana tabacum cv. xanthi
Description: Tobacco plants at the 3 developed leaves stage were watered (applied at the roots) twice in weekly intervals with BTHWA solution at a concentration of 20 mg/L. Control tobacco plants were irrigated with water only. One week after the second treatment, a Pseudomonas syringe pv. tomato bacterial suspension, at a concentration of 10^5 CFU/cm^3 was transferred to the leaf by using an insulin syringe (without a needle). The bacterial suspension was prepared from two-day syringe pv. tomato culture on a solid medium. Protection against biotic stress was evaluated based on the amount of bacterial growth in the leaves at the point of introduction followed by the formation of necrotic spots, and this was compared with the control. […] The procedure as described in Example 12 was followed, however, the effectiveness of BTHWA in protecting plants against biotic stress was tested against the bacterial cell concentration raised to approx. 10^6 […].

[8] = watered once with 100 ml of 20 mg/L

CON(C)C(=O)c1cccc2nnsc12 [BTHWA, N-methyl-N-methoxy-7-carboxybenzo[1,2,3]thiadiazole amide]
protection against the effects of fungal infection ([1]; 10 mg/L, watering and spraying): almost completely securing plants from the effects of fungal infection | protection against the effects of fungal infection ([1]; sprayed twice, 20 mg/L): fully protecting plants against the effects of fungal infection | fungal infection and formation of infected leaf areas ([1]; watered twice at a weekly interval, 20 mg/L): fungal infection and formation of infected areas were not observed | concentration in the working fluid at which phytotoxic effects were observed (yellowing of the leaves, necrosis of leaves, growth inhibition) [2]: above 100 mg/L | total mass of the untreated plants lower than the weight of the treated plants [3]: 13% | increase of the mass of the germ in comparison to control [4]: 5% | protection against the effects of bacterial infection [5]: fully protecting plants against the effects of bacterial infection | Resistance induction [%] (Reduction of necrotic spots related to control) ([6]; spray 5 mg/L, TMV inoculation after six days): 85% | Resistance induction [%] (Reduction of necrotic spots related to control) ([6]; spray 10 mg/L, TMV inoculation after six days): 97% | Resistance induction [%] (Reduction of necrotic spots related to control) ([6]; spray 20 mg/L, TMV inoculation after six days): 97% | Resistance induction [%] (Reduction of necrotic spots related to control) ([6]; spray 50 mg/L, TMV inoculation after six days): 98% | lowest possible concentration at which the efficiency is maintained at greater than 90% ([6]; spray, TMV inoculation after six days): 10 mg/L | effectiveness in preventing biotic stress compared with BION ([6]; sprayed once, 20 mg/L): more effective in preventing the occurrence of biotic stress | Average number of the local necrotic spots per leaf ([6]; sprayed once, 20 mg/L, TMV infection a week later): 0 | Reduction of necrotic spots [%] ([6]; sprayed once, 20 mg/L, TMV infection a week later, vs control): 100% | persistence of the resistance effect after a single application [6, 8]: up to 25 days | time to activation of resistance after application [6, 8]: after at least three days | % of induction (reduction of necrotic spots related to control) ([6]; watered once with 100 ml of 20 mg/L, virus inoculation 1 day after application): <10% | % of induction (reduction of necrotic spots related to control) ([6]; watered once with 100 ml of 20 mg/L, virus inoculation 3 days after application): 10-20% | % of induction (reduction of necrotic spots related to control) ([6]; watered once with 100 ml of 20 mg/L, virus inoculation 6 days after application): 94% | % of induction (reduction of necrotic spots related to control) ([6]; watered once with 100 ml of 20 mg/L, virus inoculation 10 days after application): 96% | % of induction (reduction of necrotic spots related to control) ([6]; watered once with 100 ml of 20 mg/L, virus inoculation 15 days after application): 95% | % of induction (reduction of necrotic spots related to control) ([6]; watered once with 100 ml of 20 mg/L, virus inoculation 20 days after application): 95% | % of induction (reduction of necrotic spots related to control) ([6]; watered once with 100 ml of 20 mg/L, virus inoculation 25 days after application): 91% | % of induction (reduction of necrotic spots related to control) ([6]; watered once with 100 ml of 20 mg/L, virus inoculation 30 days after application): 85% | protection against biotic stress (number of necrotic spots vs control) ([6]; watered twice with 10 mg/L at one-week intervals, TMV infection a week after second treatment): restricts the influence of biotic factor | durability of protection against TMV biotic stress ([6]; watering 10 mg/L twice, inoculation 1, 2 and 3 weeks after last treatment): effective after three weeks | protection against the effects of bacterial infection ([7]; 10 mg/L, applied by watering or spraying): completely protecting the treated plants from the effects of bacterial infection | protection against the effects of bacterial infection ([7]; sprayed twice at weekly intervals, 20 mg/L): fully protects the plants against the effects of bacterial infection | bacterial infection and formation of necrotic spots ([7]; watered twice at weekly intervals, 20 mg/L, bacteria 10^5 CFU/cm^3): these effects were not observed | local necrotic spots at elevated bacterial cell concentration ([7]; watering as in Example 12, bacteria approx. 10^6 CFU/cm): no local necrotic spots were observed
